Four compounds from patent US9296749B2, “Crystalline cis-(E)-4-(3-fluorophenyl)-2′,3′,4′,9′-tetrahydro-N,N-dimethyl-2′-(1-oxo-3-phenyl-2-propenyl)-spiro[cyclohexane-1,1′[1H]” (priority 2013, dated 2016) can be followed below.

Holding throughout (type): physicochemical
Data set [1] in a line: Interconversion/slurry experiments of mixed crystalline forms in 2-propanol (XRPD). On the procedure: About 25 mg of a specific crystalline form of compound (1) and 25 mg of the same or another crystalline form of compound (1) were charged into a vial and 1.0 mL of 2-Propanol was added. The vials were closed and the mixtures were stirred (via shaking using an Eppendorf Thermomixer, starting with 750 rpm, increased to 1000 rpm after 1 day) at an elevated temperature (30±2° C.) for 7 days. Subsequently the mixtures were cooled to 20±2° C. and stirred for an additional 2 hours.
The solids were then separated via filtration using a suction filter. To dry the thus obtained solid material an air flow was applied for 2 to 3 hours.
The crystalline form of the obtained materials was determined using XRPD. The experiments are summarized below in table 2 below.
A mixture of two different crystalline forms of compound (1) was charged into a vial and 1.0 mL of 2-Propanol was added (details see table).
The vials were closed and the mixtures were stirred (by means of shaking, Eppendorf Thermomixer, 750 rpm at first, increased to 1000 rpm after 1 d) at elevated temperature (30±2° C.) for 7 days.
Subsequently, the mixtures were cooled to 20±2° C. and stirred for additional 2 hours.
The solids were then isolated via filtration using a suction filter. The air flow from the suction pump was applied for 2 to 3 hours to dry the isolated solid.

Data set [2] is described as follows: Chemical stability of crystalline forms, open-vial storage (content by HPLC, crystalline form by XRPD). On the procedure:
Samples of compound 1 in different crystalline forms were stored in open vials under controlled conditions at different temperatures and rel. humidities for 28 days. Prior to storage and after 14 and 28 days the content of compound (1) in the sample was determined via HPLC and the crystalline form was measured via XRPD.

A short description of data set [3]: Chemical stability in pharmaceutical compositions (excipient mixtures with 10% compound (1)). The settings on record: listed as A. On the procedure: To test the chemical stability, i.e. compatibility of different crystalline forms of compound (1), solid multi component mixtures were prepared comprising well established excipients used for solid oral dosage form and having different functions therein. The single components of each mixture were exactly weighed and intensively triturated using a mortar and a pestle.
10 g of the final mixtures were separately filled into glass vials (open or closed) and stored under the conditions outlined below in table 13. Samples were taken and analyzed initially and after 1, 2 and 3 months with respect to the content of compound (1) within the mixtures.

A short description of data set [4]: Dynamic vapor sorption (DVS), hygroscopicity. On the procedure: Crystalline forms were characterized by dynamic vapor sorption (DVS) using a Porotec DVS 1000 or a SMS DVS Intrinsic water vapor sorption analyzer. For the DVS analysis, a step width of 10% r.h. was applied allowing the samples to equilibrate and reach weight constancy (±0.002%) for at least 10 min on each step. All measurements were performed according to the following program: 50% r.h.→90% r.h., 90→0% r.h., 0%→90% r.h., 90%→50% r.h. A cycle with increasing humidity is also known as a sorption cycle, a cycle with decreasing humidity is also known as a desorption cycle. The details of the respective DVS measurements are shown below in table 51 and discussed further below.
The hygroscopicity of the respective crystalline forms determined via the DVS measurements was classified according to the ranges for mass increase defined in the European Pharmacopoeia: very hygroscopic (vh): increase of the mass ≧15%; hygroscopic (h): increase of the mass is less than 15% and equal or greater than 2%; slightly hygroscopic (sh): increase of the mass is less than 2% and equal or greater than 0.2%; not hygroscopic (nh): increase of the mass is less than 0.2%; deliquescent (d): sufficient water is absorbed to form a liquid.

Data set [5] in a line: Slurry of a single crystalline form in solvent, resulting form by XRPD. As for the experimental part:
A quantity of compound (1) is charged into a vial or flask and an amount of solvent is added. The resulting suspension/solution is stirred (e.g. orbital shaker or overhead-stirrer) for a given time at a specific temperature. Subsequently, if the suspension/solution was stirred at an elevated temperature, it is allowed to cool to room temperature or any other predetermined temperature to precipitate or crystallize the product and the solvent is removed by filtration.
The vial was closed and the mixture (a white suspension) was stirred (by means of shaking, 400 rpm, PLS Synthesiser) at room temperature (22±2° C.) for 13 days.
The solid was separated using a suction filter and dried by applying an air flow for additional 5 to 30 minutes (until the solid appeared to be dry).
The vial was closed and the suspension was stirred (by means of shaking, PLS shaker, 400 rpm) at an elevated temperature (40° C.±2) for 20 h.
The mixture was cooled to 20±2° C. The solid was separated using a suction filter (G4) and dried by applying an air flow until the sample appeared to be dry. The white solid was subsequently left for 1 h at ambient conditions.

As to `CN(C)[C@]1(c2cccc(F)c2)CC[C@]2(CC1)c1[nH]c3ccccc3c1CCN2C(=O)/C=C/c1ccccc1` [A17.9], in data set [1] (1.0 mL 2-Propanol, 30±2° C. 7 days, then 20±2° C. 2 hours, XRPD), the resulting crystalline form is given as “A + H”.

In the case of `CN(C)[C@]1(c2cccc(F)c2)CC[C@]2(CC1)c1[nH]c3ccccc3c1CCN2C(=O)/C=C/c1ccccc1` [crystalline form A, cis-(E)-4-(3-Fluorophenyl)-2′,3′,4′,9′-tetrahydro-N,N-dimethyl-2′-(1-oxo-3-phenyl-2-propenyl)-spiro[cyclohexane-1,1′[1H]-pyrido[3,4-b]indol]-4-amine], the “Content cmpd (1)” value was found to be 99.58% in data set [2] (40° C., 75% r.H., storage 0 d, listed as A); 99.63% in data set [2] (40° C., 75% r.H., storage 14 d, listed as A); 99.39% in data set [2] (40° C., 75% r.H., storage 28 d, listed as A); 99.58% in data set [2] (50° C., storage 0 d, listed as A); 99.49% in data set [2] (50° C., storage 14 d, listed as A); 99.37% in data set [2] (50° C., storage 28 d, listed as A). For the same compound, the “content of compound (1) within the mixture” value (from here on “content of compound”) is 99.66 in data set [3] (Lactose monohydrate, PVP25, Crospovidone, Talcum, 40° C., 75% rel. hum., 0 month); 99.93 in data set [3] (Lactose monohydrate, PVP25, Crospovidone, Talcum, 40° C., 75% rel. hum., 1 month); 99.72 in data set [3] (Lactose monohydrate, PVP25, Crospovidone, Talcum, 40° C., 75% rel. hum., 2 months); 99.86 in data set [3] (Lactose monohydrate, PVP25, Crospovidone, Talcum, 40° C., 75% rel. hum., 3 months); 99.66 in data set [3] (Lactose monohydrate, PVP25, Crospovidone, Talcum, 50° C. dry, 0 month); 99.58 in data set [3] (Lactose monohydrate, PVP25, Crospovidone, Talcum, 50° C. dry, 1 month). The “content of compound” value in data set [3] (Lactose monohydrate, PVP25, Crospovidone, Talcum, 50° C. dry, 2 months) turned out to be 99.54; in data set [3] (Lactose monohydrate, PVP25, Crospovidone, Talcum, 50° C. dry, 3 months), 99.56; in data set [3] (Microcrystalline cellulose, HPMC 6 mPas, L-HPC LH21, magnesium stearate, 40° C., 75% rel. hum., 0 month), 90.64; in data set [3] (Microcrystalline cellulose, HPMC 6 mPas, L-HPC LH21, magnesium stearate, 40° C., 75% rel. hum., 1 month), 99.61; in data set [3] (Microcrystalline cellulose, HPMC 6 mPas, L-HPC LH21, magnesium stearate, 40° C., 75% rel. hum., 2 months), 99.60; in data set [3] (Microcrystalline cellulose, HPMC 6 mPas, L-HPC LH21, magnesium stearate, 40° C., 75% rel. hum., 3 months), 99.66. In addition, the “content of compound” value in data set [3] (Microcrystalline cellulose, HPMC 6 mPas, L-HPC LH21, magnesium stearate, 50° C. dry, 0 month) came out at 99.64; in data set [3] (Microcrystalline cellulose, HPMC 6 mPas, L-HPC LH21, magnesium stearate, 50° C. dry, 1 month), 99.59; in data set [3] (Microcrystalline cellulose, HPMC 6 mPas, L-HPC LH21, magnesium stearate, 50° C. dry, 2 months), 99.59; in data set [3] (Microcrystalline cellulose, HPMC 6 mPas, L-HPC LH21, magnesium stearate, 50° C. dry, 3 months), 99.62. The “change in mass with increasing/decreasing relative humidity” value in data set [4] is −0.2 to 0.1%. In addition, the hysteresis in data set [4] is recorded as no more than 0.5%. For the same compound, in data set [4] (classes of European Pharmacopoeia), the hygroscopicity result is “not hygroscopic or just slightly hygroscopic”. In data set [1] (conclusion from the interconversion experiments in 2-Propanol), the “thermodynamic stability relative to the other crystalline forms” value is recorded as “thermodynamically more stable than the other crystalline forms”. The resulting crystalline form in data set [5] (suspension in ethanol, 40° C.±2, 20 h) was “crystalline form A”; in data set [5] (suspension in ethylacetate/water 70:30, room temperature (22±2° C.), 13 days), “crystalline form A”.

With `CN(C)[C@]1(c2cccc(F)c2)CC[C@]2(CC1)c1[nH]c3ccccc3c1CCN2C(=O)/C=C/c1ccccc1` [crystalline form D, cis-(E)-4-(3-Fluorophenyl)-2′,3′,4′,9′-tetrahydro-N,N-dimethyl-2′-(1-oxo-3-phenyl-2-propenyl)-spiro[cyclohexane-1,1′[1H]-pyrido[3,4-b]indol]-4-amine], the “Content cmpd (1)” value in data set [2] (40° C., 75% r.H., storage 0 d, listed as D) is recorded as 84.61%; in data set [2] (40° C., 75% r.H., storage 14 d, listed as D) it was 84.27%; in data set [2] (40° C., 75% r.H., storage 28 d, listed as D) it was 83.92%; in data set [2] (50° C., storage 0 d, listed as D), 84.61%; in data set [2] (50° C., storage 14 d, listed as D), 84.65%; in data set [2] (50° C., storage 28 d, listed as D) it was 83.54%. Further, in data set [4] (sorption and desorption behavior), the “hysteresis (in words)” value is “no significant hysteresis”. Moreover, the “transformation into another polymorphic form” value in data set [5] (suspensions of Table 6: acetonitrile, acetone/water or water, RT or 50° C., 3 to 5 d) is recorded as “did not transform into another polymorphic form”.

For the compound `CN(C)[C@]1(c2cccc(F)c2)CC[C@]2(CC1)c1[nH]c3ccccc3c1CCN2C(=O)/C=C/c1ccccc1` [crystalline form E, cis-(E)-4-(3-Fluorophenyl)-2′,3′,4′,9′-tetrahydro-N,N-dimethyl-2′-(1-oxo-3-phenyl-2-propenyl)-spiro[cyclohexane-1,1′[1H]-pyrido[3,4-b]indol]-4-amine], the “Content cmpd (1)” value in data set [2] (40° C., 75% r.H., storage 0 d, listed as E) stood at 99.76%; in data set [2] (40° C., 75% r.H., storage 14 d, listed as E) it was 99.80%; in data set [2] (40° C., 75% r.H., storage 28 d, listed as E) it was 99.50%; in data set [2] (50° C., storage 0 d, listed as E), 99.76%; in data set [2] (50° C., storage 14 d, listed as E), 97.25%; in data set [2] (50° C., storage 28 d, listed as E) it was 95.53%. Also, the “hysteresis (in words)” value in data set [4] (between 10% and 40% relative humidity) was “significant hysteresis”.
